For one data set, the system named is HBV. The data set can be described thus: Viral load production in AD38 cells by quantitative PCR of the core sequence. Format: cell-based. The settings on record: Hepatitis B virus, 144 h, 10 μM compound, 6 days, supernatant qPCR, relative to DMSO control, read-out: AD38 Viral Load (%) (VL with cmpd/VL in DMSO control) at 10 μM. Here is the method:
(§1) AD38 cells were then re-suspended with 10 mL of Treatment Medium and counted. Wells of a collagen coated 96-well NUNC microtiter plate were seeded at 50,000/well in 180 μL of Treatment Medium, and 20 μL of in treatment media with either 10% DMSO (Control) or a 10× solution of compound in 10% DMSO was added. Plates were incubated for 6 days at 37° C.
Viral load production was assayed by quantitative PCR of the core sequence. […] The PCR mixture was incubated at 45° C. for 5 minutes, then 95° C. for 10 min, followed by 40 cycles of 10 seconds at 95° C. and 20 seconds at 60° C. Viral load was quantitated against known standards by using ViiA™ 7 Software. Viral load in the supernatant from wells with treated cells were compared against viral load in supernatant from DMSO control wells (≥3 per plate).
In general terms: Real-time PCR tracks product formation cycle by cycle.

The subject of another data set is AD38 cells. As to the kind of experiment: Viability of AD38 cells (Promega CellTiter-Glo). Format: cell-based. The conditions noted are these: 10 μM compound, 6 days, DMSO controls = 100%. The protocol: as §1
At the end of compound treatment period cell viability was assessed using a Promega CellTiter-Glo protocol. All supernatant was removed the previously treated 96-well microtiter plate, and 50 μL Tetracycline-free treatment medium (DMEM/F12 (1:1), 1× Pen/step (cat#: 30-002-CL, Mediatech, Inc), with 2% FBS, Tet-system approved (cat#: 631106, Clontech), and 1% DMSO was added back to each well. Another 50 μL of CellTiter-Glo reagent solution (Promega, G7573) was then added at room temperature and the contents mixed for 2 minutes on an orbital shaker to induce cell lysis. This was followed by incubation at room temperature for 10 minutes to stabilize the luminescent signal. The luminescence was recorded for 0.2 seconds per well on a Tecan multimode platereader (Infinite M1000 pro). The luminescent signal from each well was normalized against that of untreated (DMSO) control wells. All results in Table 3 were reported with percent viability (with controls being 100%).
Background: In ATP-based viability assays light output follows the ATP content of the culture.

Structures are written as SMILES.

For `O=C(NCc1cnc(-c2ccccc2CO)nc1)c1ccc2c(c1)NC(=O)c1ccccc1S2(=O)=O` [Compound 844], the activity at 10 µM with HBV came out at 10.2%. Further, the “AD38 Viability Normalized Result (cmpd/DMSO %) at 10 μM” value in the data set on AD38 cells is 103%.
`N#Cc1ccc(-c2ccc(CNC(=O)c3ccc4c(c3)NC(=O)c3ccccc3S4(=O)=O)cn2)cc1` [Compound 867]: the activity at 10 µM in the data set on HBV was found to be 0.6%. The “AD38 Viability Normalized Result (cmpd/DMSO %) at 10 μM” value in the data set with AD38 cells stood at 86%.
Consider `NC(=O)c1ccc(-c2ccc(CNC(=O)c3ccc4c(c3)NC(=O)c3ccccc3S4(=O)=O)cn2)cc1` [Compound 868, N-((6-(4-carbamoylphenyl)pyridin-3-yl)methyl)-11-oxo-10,11-dihydrodibenzo[b,f][1,4]thiazepine-8-carboxamide 5,5-dioxide], for which the activity at 10 µM with HBV came to 27.7%. For the same molecule, in the data set with AD38 cells, the “AD38 Viability Normalized Result (cmpd/DMSO %) at 10 μM” value is reported as 103%.
Turning to `N#Cc1ccc(-c2ccc(CNC(=O)c3ccc4c(c3)NC(=O)c3ccccc3S4(=O)=O)nc2)cc1` [Compound 869, N-((5-(4-cyanophenyl)pyridin-2-yl)methyl)-11-oxo-10,11-dihydrodibenzo[b, f][1,4]thiazepine-8-carboxamide 5,5-dioxide], the activity at 10 µM in the data set with HBV turned out to be 13.3%. Further, in the data set with AD38 cells, the “AD38 Viability Normalized Result (cmpd/DMSO %) at 10 μM” value is 83%.
Regarding `NC(=O)c1ccc(-c2ccc(CNC(=O)c3ccc4c(c3)NC(=O)c3ccccc3S4(=O)=O)nc2)cc1` [Compound 870, N-((5-(4-carbamoylphenyl)pyridin-2-yl)methyl)-11-oxo-10, 11-dihydrodibenzo[b,f][1,4]thiazepine-8-carboxamide 5,5-dioxide], the activity at 10 µM with HBV is 82.7%. For the same molecule, the “AD38 Viability Normalized Result (cmpd/DMSO %) at 10 μM” value in the data set on AD38 cells stood at 106%.
Consider `N#Cc1ccc(-c2ncc(CNC(=O)c3ccc4c(c3)NC(=O)c3ccccc3S4(=O)=O)cn2)cc1` [Compound 871, N-((2-(4-cyanophenyl)pyrimidin-5-yl)methyl)-11-oxo-10, 11-dihydrodibenzo[b,f][1,4]thiazepine-8-carboxamide 5,5-dioxide], for which the activity at 10 µM in the data set with HBV came out at 1.3%. For the same molecule, in the data set on AD38 cells, the “AD38 Viability Normalized Result (cmpd/DMSO %) at 10 μM” value is 96%.
Consider `NC(=O)c1ccc(-c2ncc(CNC(=O)c3ccc4c(c3)NC(=O)c3ccccc3S4(=O)=O)cn2)cc1` [Compound 872, N-((2-(4-carbamoylphenyl)pyrimidin-5-yl)methyl)-11-oxo-10, 11-dihydrodibenzo[b,f][1,4]thiazepine-8-carboxamide 5,5-dioxide], for which the activity at 10 µM in the data set on HBV is 5.2%. In the data set with AD38 cells, the “AD38 Viability Normalized Result (cmpd/DMSO %) at 10 μM” value is reported as 104%.
For `O=C(NCc1ccc(C(F)(F)F)nc1)c1ccc2c(c1)NC(=O)c1ccccc1S2(=O)=O` [Compound 875], in the data set with HBV, the activity at 10 µM stood at 26.1%. For the same molecule, in the data set with AD38 cells, the “AD38 Viability Normalized Result (cmpd/DMSO %) at 10 μM” value is 108%.
`O=C(NCc1cnc(C(F)(F)F)nc1)c1ccc2c(c1)NC(=O)c1ccccc1S2(=O)=O` [Compound 876]: the activity at 10 µM in the data set with HBV turned out to be 65.5%. Also, the “AD38 Viability Normalized Result (cmpd/DMSO %) at 10 μM” value in the data set on AD38 cells was 101%.

For the origin of these results see patent US10392379B2, “Hepatitis B core protein modulators” (Assembly Biosciences, Inc., priority 2015, dated 2019).
